Details of test [1]: method as in Pant et al., 2024. Conditions: compared with donepezil; ref Pant et al., 2024; cited from earlier work.
Test [2] has as its target T1, MARK4 (Homo sapiens, UniProt Q96L34).
T1 sequence (Q96L34 1-752): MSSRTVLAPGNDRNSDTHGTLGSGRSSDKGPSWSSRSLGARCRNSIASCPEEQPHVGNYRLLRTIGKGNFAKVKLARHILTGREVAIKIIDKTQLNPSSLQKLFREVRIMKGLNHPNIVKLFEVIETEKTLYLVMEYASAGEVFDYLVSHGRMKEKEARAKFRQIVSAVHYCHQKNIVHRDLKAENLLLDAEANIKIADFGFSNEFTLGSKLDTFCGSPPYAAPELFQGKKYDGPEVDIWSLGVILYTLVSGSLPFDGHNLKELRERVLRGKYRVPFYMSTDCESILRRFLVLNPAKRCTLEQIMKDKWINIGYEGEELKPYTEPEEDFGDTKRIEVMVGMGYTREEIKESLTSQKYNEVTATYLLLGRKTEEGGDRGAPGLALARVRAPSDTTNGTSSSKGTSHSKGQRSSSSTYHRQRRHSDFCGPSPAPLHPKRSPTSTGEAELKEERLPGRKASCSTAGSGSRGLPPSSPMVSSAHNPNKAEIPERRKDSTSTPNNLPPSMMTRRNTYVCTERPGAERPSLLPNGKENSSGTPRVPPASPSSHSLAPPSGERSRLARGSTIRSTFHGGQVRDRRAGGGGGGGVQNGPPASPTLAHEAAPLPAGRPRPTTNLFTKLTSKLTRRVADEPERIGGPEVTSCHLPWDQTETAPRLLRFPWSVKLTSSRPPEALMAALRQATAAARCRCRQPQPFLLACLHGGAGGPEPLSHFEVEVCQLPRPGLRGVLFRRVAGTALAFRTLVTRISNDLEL
The test is described as follows: MARK4 ATPase (malachite green) enzyme inhibition assay. Type of test: biochemical. The conditions noted are these: MARK4 5 μM, 1 hour at 25°C, triplicates. As for the experimental part:
The inhibitory potential of the synthesized compounds against MARK4 was analysed using the malachite green based enzyme inhibition assay. The malachite green kinase inhibition assay is a colorimetric technique designed to assess kinase activity by detecting the release of inorganic phosphate (Pi) during phosphorylation. When a kinase transfers a phosphate group from ATP to its substrate, Pi is generated as a byproduct. The malachite green reagent interacts with Pi to produce a green-colored complex, which can be quantified using a spectrophotometer. This assay is modified to evaluate enzyme inhibition by measuring the reduction in Pi release in the presence of potential inhibitors. […] The protein’s highest activity, MARK4 (ligand-free), was utilised as a reference, and various ligand concentrations were added to determine the IC50 value. […] Finally 96 well plates were filled with 100 μL of the reaction mixture, which was then scanned at 620 nm using a multiscan ELISA reader. […]
MARKs, or microtubule-affinity regulating kinases, are a group of serine/threonine kinases found in mammals and other organisms ([Naz et al., 2013]). […] In the present study, we selected MARK4 as the target and assessed our compounds against it. […] Following this, attempts have been made to collect the fluorescence quenching of MARK4 in the presence of the best inhibitor (14). […]

The target of test [3] is T1, MARK4. Put plainly: Fluorescence quenching of MARK4. In kind it is binding. Conditions: data not included. An excerpt: MARKs, or microtubule-affinity regulating kinases, are a group of serine/threonine kinases found in mammals and other organisms ([Naz et al., 2013]). These kinases play a critical role in phosphorylating microtubule-associated proteins, which then go on to regulate important processes like cell cycle progression and cytoskeletal dynamics. These kinases are quite abundant in the human brain and are known to be key players in the development and progression of various diseases including cancer and ADs ([Alam et al., 2023]). Despite their high importance, there has been limited research on the development of synthetic small molecules (inhibitors) against MARK4 ([Li et al., 2020]; [Voura et al., 2022]). In the present study, we selected MARK4 as the target and assessed our compounds against it. The kinase inhibitory potential of the compounds against MARK4 was examined using an ATPase inhibition assay ([Yousuf et al., 2015]; [Yousuf et al., 2022]). […] Following this, attempts have been made to collect the fluorescence quenching of MARK4 in the presence of the best inhibitor (14). […] The rationale behind the behaviour is currently under investigation.

With `Clc1ccc(Cc2ccnc(CCN3CCCCC3)n2)cc1` [a], the neuroprotective effects entry in test [1] is “neuroprotective effects better than donepezil”.

As for `COc1ccc(S(=O)(=O)N2CCN(c3cc(-c4ccsc4)ncn3)CC2)c(OC)c1` [Compound 9, 4-(4-((2,4-Dimethoxyphenyl)-sulfonyl)-piperazin-1-yl)-6-(thiophen-3-yl)-pyrimidine], on MARK4 [2], half-maximal inhibition (IC50) required 13 ± 0.63 µM.

The compound `O=S(=O)(c1cccc2ccccc12)N1CCN(c2cc(-c3ccsc3)ncn2)CC1` [Compound 14, 4-(4-(Naphthalen-1-ylsulfonyl)-piperazin-1-yl)-6-(thiophen-3-yl)-pyrimidine] displayed an IC50 against MARK4 [2] of 7.52 ± 0.33 µM. In addition, at MARK4 [3], the “fluorescence quenching of MARK4 emission” value is listed as “did not show appreciable quenching”.

Values taken from article PMC11788324, “4,6-Disubstituted pyrimidine-based microtubule affinity-regulating kinase 4 (MARK4) inhibitors: synthesis, characterization, in-vitro activity and in-silico studies” (Frontiers in Pharmacology, 2025).
